Read-outs that look alike come from different tables or passages of the source.
Tests used:
HDAC7 = target: T1, HDAC7 (Homo sapiens, UniProt Q8WUI4); experiment: HDAC biochemical activity measurement (fluorescent substrate deacetylation);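 on all read-outs here: fluorogenic deacetylation assay using acetyl-lysine substrate at 20 µM, enzyme and compound incubated 30 min at 37 °C, then developer added, fluorescence read at 360/460 nm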; settings: for IC50 HDAC7: 37° C. 30 minutes
T1 sequence (Q8WUI4 1-952): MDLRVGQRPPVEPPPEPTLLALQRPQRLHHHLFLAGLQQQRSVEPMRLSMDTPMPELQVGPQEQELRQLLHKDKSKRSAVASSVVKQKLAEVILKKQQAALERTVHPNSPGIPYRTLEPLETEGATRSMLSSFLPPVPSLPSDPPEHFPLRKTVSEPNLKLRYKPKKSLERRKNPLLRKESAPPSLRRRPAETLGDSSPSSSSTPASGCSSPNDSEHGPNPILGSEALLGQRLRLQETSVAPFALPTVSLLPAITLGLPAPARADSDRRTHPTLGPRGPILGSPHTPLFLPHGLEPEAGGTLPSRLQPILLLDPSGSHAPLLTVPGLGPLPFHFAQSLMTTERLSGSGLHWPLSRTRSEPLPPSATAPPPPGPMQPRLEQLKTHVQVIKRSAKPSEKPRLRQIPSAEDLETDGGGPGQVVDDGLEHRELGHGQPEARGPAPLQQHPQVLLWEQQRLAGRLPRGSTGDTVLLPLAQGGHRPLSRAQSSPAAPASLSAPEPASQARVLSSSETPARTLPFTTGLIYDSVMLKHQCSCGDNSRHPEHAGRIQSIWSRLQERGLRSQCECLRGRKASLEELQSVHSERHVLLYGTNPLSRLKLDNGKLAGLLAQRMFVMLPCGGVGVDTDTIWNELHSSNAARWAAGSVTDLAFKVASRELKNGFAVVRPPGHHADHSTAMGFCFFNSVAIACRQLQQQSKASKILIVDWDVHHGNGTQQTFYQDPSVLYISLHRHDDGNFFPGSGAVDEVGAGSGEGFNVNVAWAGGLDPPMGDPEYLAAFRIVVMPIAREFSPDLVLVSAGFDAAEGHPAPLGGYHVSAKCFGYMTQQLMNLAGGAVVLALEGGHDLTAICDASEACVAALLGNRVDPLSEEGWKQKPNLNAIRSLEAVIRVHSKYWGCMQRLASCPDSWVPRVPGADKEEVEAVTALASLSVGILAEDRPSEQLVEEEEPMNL

[1] = system: A549 (human lung cancer cells); experiment: MTT cancer cell growth inhibition; format: cell-based; settings: A549 cells, MTT, 72 hours incubation, read-out: GI50 A54
Text: (§1) MTT assay principle is yellow MTT can penetrate membrane into the cell, succinic dehydrogenase of the mitochondria in living cells can make exogenous MTT reduction of insoluble in water of blue-violet acicular formazan for crystallization and deposition in the cell, crystallization can be dissolved dimethyl sulfoxide (DMSO) solution, detected its absorbance at 490 nm/570 nm wavelength by enzyme-linked immunosorbent assay, which can reflect the number of cells.
(§2) Using DMEM+10% FBS culture medium or using 1640+10% FBS culture, respectively.
(§3) a) Cells were seeded in 96-well plates with the inoculation of 1500/well, 190 μl/hole, 37° C., 5% of CO2 incubator overnight;
(§4) b) The next day each well was added 10 μl of different drugs. The final concentration of drug was 10^−5˜10^−10M, three parallel holes; 37° C., 5% CO2 culture incubator for 72 hours incubation;
(§5) c) Per well was added 20 μl 5 mg/ml of MTT, 37° C., 5% CO2 culture incubator for 4 hours incubation;
(§6) d) The supernatant was discarded. Each well was added 100 μl of DMSO and oscillation;
(§7) e) 570 nm readings. Calculate cell viability. GI50 calculation based on the results.

[2] = system: BGC-823 (human gastric cancer cells); experiment: MTT cancer cell growth inhibition; format: cell-based; settings: Homo sapiens, BGC-823, 72 h, BGC-823 cells, MTT, 72 hours incubation; read-out: GI50 BG
Text: as §1, §2, §3, §4, §5, §6, §7

[3] = system: Bel-7402 (human hepatoma cells); experiment: MTT cancer cell growth inhibition; format: cell-based; settings: MTT, 72 hours incubation, Bel-7402 cells, read-out: GI50 Bel-7402
Text: as §1, §2, §3, §4, §5, §6, §7

[4] = system: DU145 (human prostate cancer cells); experiment: MTT cancer cell growth inhibition; format: cell-based; settings: Homo sapiens, DU-145, 72 h, DU145 cells, MTT, 72 hours incubation; read-out: GI50 Du1
Text: as §1, §2, §3, §4, §5, §6, §7

[5] = system: H1975 (non-small cell lung adenocarcinoma); experiment: MTT cancer cell growth inhibition; format: cell-based; settings: MTT, 72 hours incubation, H1975 cells, read-out: GI50 H1975
Text: as §1, §2, §3, §4, §5, §6, §7

[6] = system: HCC827 (human non-small cell lung cancer cells); experiment: MTT cancer cell growth inhibition; format: cell-based; settings: MTT, 72 hours incubation, HCC827 cells, read-out: GI50 HCC827
Text: as §1, §2, §3, §4, §5, §6, §7

[7] = system: HT1080 (human fibrosarcoma cells); experiment: MTT cancer cell growth inhibition; format: cell-based; settings: HT1080 cells, MTT, 72 hours incubation, read-out: GI50 HT1
Text: as §1, §2, §3, §4, §5, §6, §7

[8] = system: Hela (human cervical cancer cells); experiment: MTT cancer cell growth inhibition; format: cell-based; settings: Hela cells, MTT, 72 hours incubation, read-out: GI50 Hela
Text: as §1, §2, §3, §4, §5, §6, §7

[9] = system: Huh-7 (human hepatoma cells); experiment: MTT cancer cell growth inhibition; format: cell-based; settings: Homo sapiens, Huh-7, 72 h, MTT, 72 hours incubation, Huh-7 cells; read-out: GI50 Huh-7
Text: as §1, §2, §3, §4, §5, §6, §7

[10] = system: K562 (human leukemia cells); experiment: MTT cancer cell growth inhibition; format: cell-based; settings: Homo sapiens, K562, 72 h, MTT, 72 hours incubation, K562 cells; read-out: GI50 K562
Text: as §1, §2, §3, §4, §5, §6, §7

[11] = system: KBM-5 (human chronic myelogenous leukemia); experiment: MTT cancer cell growth inhibition; format: cell-based; settings: Homo sapiens, KBM5, 72 h, MTT, 72 hours incubation, KBM-5 cells; read-out: GI50 KBM-5
Text: as §1, §2, §3, §4, §5, §6, §7

[12] = system: KBM5-T315I (human chronic myelogenous leukemia); experiment: MTT cancer cell growth inhibition; format: cell-based; settings: MTT, 72 hours incubation, KBM5-T315I cells, read-out: GI50 KBM5-T315I
Text: as §1, §2, §3, §4, §5, §6, §7

[13] = system: MCF-7 (human breast cancer cells); experiment: MTT cancer cell growth inhibition; format: cell-based; settings: Homo sapiens, MCF7, 72 h, MCF-7 cells, 72 hours incubation, read-out: GI50 MCF
Text: as §1, §2, §3, §4, §5, §6, §7

[14] = system: MDA-MB-231 (breast cancer cells); experiment: MTT cancer cell growth inhibition; format: cell-based; settings: Homo sapiens, MDA-MB-231, 72 h, read-out: GI50 MDA-MB-231, MTT, 72 hours incubation, MDA-MB-231 cells
Text: as §1, §2, §3, §4, §5, §6, §7

[15] = system: MOLT-4 (human acute lymphoblastic leukemia cells); experiment: MTT cancer cell growth inhibition; format: cell-based; settings: Homo sapiens, MOLT-4, 72 h, MOLT-4 cells, MTT, 72 hours incubation; read-out: GI50 Mol
Text: as §1, §2, §3, §4, §5, §6, §7

[16] = system: N-87 (human gastric cancer cells); experiment: MTT cancer cell growth inhibition; format: cell-based; settings: Homo sapiens, 72 h, MTT, 72 hours incubation, N-87 cells; read-out: GI50 N-87
Text: as §1, §2, §3, §4, §5, §6, §7

[17] = system: PANC-1 (Pac-1, human pancreatic cancer cells); experiment: MTT cancer cell growth inhibition; format: cell-based; settings: Homo sapiens, PANC-1, 72 h, PANC-1 cells, MTT, 72 hours incubation; read-out: GI50 PAN
Text: as §1, §2, §3, §4, §5, §6, §7

[18] = system: SGC-7901 (human gastric cancer cells); experiment: MTT cancer cell growth inhibition; format: cell-based; settings: Homo sapiens, SGC-7901, 72 h, MTT, 72 hours incubation, SGC-7901 cells; read-out: GI50 SGC-7901
Text: as §1, §2, §3, §4, §5, §6, §7

[19] = system: U937 (human leukemia cells); experiment: MTT cancer cell growth inhibition; format: cell-based; settings: Homo sapiens, U-937, 72 h, U937 cells, MTT, 72 hours incubation; read-out: GI50 U93
Text: as §1, §2, §3, §4, §5, §6, §7

[20] = system: lncap (prostate cancer cells); experiment: MTT cancer cell growth inhibition; format: cell-based; settings: Homo sapiens, LNCaP, 72 h, lncap cells, MTT, 72 hours incubation; read-out: GI50 lnca
Text: as §1, §2, §3, §4, §5, §6, §7

IC50 HDAC7 (HDAC7) | GI50 [2] [nM] | GI50 [4] [nM] | GI50 [9] [nM] | GI50 [10] [nM] | GI50 [11] [nM] | GI50 [13] [nM] | GI50 [14] [nM] | GI50 [15] [nM] | GI50 [16] [nM] | GI50 [17] [nM] | GI50 [18] [nM] | GI50 [19] [nM] | GI50 [20] [nM] | GI50 ([1]; Homo sapiens, A549, 72 h) [nM] | GI50 ([3]; Homo sapiens, Bel-7402, 72 h) [nM] | GI50 ([5]; Homo sapiens, NCI-H1975, 72 h) [nM] | GI50 ([6]; Homo sapiens, HCC827, 72 h) [nM] | GI50 ([7]; Homo sapiens, HT-1080, 72 h) [nM] | GI50 ([8]; Homo sapiens, HeLa, 72 h) [nM] | SMILES | further results
no activity | 30 | 30 | 71 | 36 | 28 | 60 | 71 | 50 | 26 | 30 | 44 | 50 | 80 | – | – | – | – | – | – | C/C=C1\NC(=O)c2ccc(SC)c(n2)CNC(=O)C[C@@H](/C=C/CCSC(C)=O)OC(=O)[C@H](C)NC1=O [Compound 185] | GI50 [1]: 10 nM; GI50 [3]: 91 nM; GI50 [5]: 12 nM; GI50 [6]: 82 nM; GI50 [7]: 50 nM; GI50 [8]: 50 nM; GI50 [12]: 13 nM
no activity | 40 | 50 | 76 | 49 | 86 | 50 | 16 | 40 | 28 | 40 | 43 | 80 | 30 | 60 | 52 | 45 | 71 | 50 | 70 | C/C=C1\NC(=O)c2ccc(SC)c(n2)CNC(=O)C[C@@H](/C=C/CCSC(C)=O)OC(=O)[C@H](CCCCNC(=O)OCC2c3ccccc3-c3ccccc32)NC1=O [Compound 197] | GI50 ([12]; Homo sapiens, 72 h): 21 nM
– | 40 | 50 | 27 | 27 | 53 | 40 | 21 | 30 | 43 | 30 | 63 | 80 | 50 | 40 | 58 | 38 | 45 | 60 | 70 | C/C=C1\NC(=O)c2nc(ccc2SCC)CNC(=O)C[C@@H](/C=C/CCSC(=O)CCCCCC)OC(=O)[C@H](C(C)C)NC1=O [Compound 250] | IC50 (μM) HDAC7 (HDAC7): no activity; GI50 ([12]; Homo sapiens, 72 h): 79 nM
